Molecules are shown by their SMILES.

Sequence of c-Kit kinase (P10721 26-976): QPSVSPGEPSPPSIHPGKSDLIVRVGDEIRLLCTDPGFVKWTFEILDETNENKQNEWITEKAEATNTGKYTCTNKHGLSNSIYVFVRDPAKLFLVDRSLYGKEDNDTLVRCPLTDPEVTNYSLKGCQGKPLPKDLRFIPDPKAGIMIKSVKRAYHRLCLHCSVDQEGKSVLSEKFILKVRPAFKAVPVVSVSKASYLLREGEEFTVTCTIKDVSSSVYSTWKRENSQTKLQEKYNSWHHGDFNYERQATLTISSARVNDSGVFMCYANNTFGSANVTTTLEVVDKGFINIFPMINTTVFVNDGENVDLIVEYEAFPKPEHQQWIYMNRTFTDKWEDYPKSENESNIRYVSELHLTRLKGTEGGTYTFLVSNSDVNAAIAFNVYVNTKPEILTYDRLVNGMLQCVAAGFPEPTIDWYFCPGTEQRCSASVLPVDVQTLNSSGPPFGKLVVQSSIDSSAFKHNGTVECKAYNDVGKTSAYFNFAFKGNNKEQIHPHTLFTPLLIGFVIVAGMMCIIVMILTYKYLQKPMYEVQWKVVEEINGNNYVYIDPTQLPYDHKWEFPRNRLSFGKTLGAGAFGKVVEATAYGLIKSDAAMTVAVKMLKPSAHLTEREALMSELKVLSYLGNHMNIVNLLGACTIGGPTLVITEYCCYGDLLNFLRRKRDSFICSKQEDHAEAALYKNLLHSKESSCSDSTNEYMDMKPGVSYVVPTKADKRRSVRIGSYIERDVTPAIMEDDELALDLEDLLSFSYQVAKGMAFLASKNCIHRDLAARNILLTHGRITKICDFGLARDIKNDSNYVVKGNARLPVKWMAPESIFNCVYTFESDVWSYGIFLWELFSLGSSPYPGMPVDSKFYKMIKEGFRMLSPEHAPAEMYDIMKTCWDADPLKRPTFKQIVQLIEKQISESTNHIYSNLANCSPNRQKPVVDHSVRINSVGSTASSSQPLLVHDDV

The target of the assay is c-Kit kinase (Homo sapiens (Human), UniProt P10721). The assay can be described thus: c-Kit biochemical assay (AlphaScreen kinase activity). Summed up:
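IC50 values come from 8-point, 1:3 compound titrations measuring inhibition of peptide phosphorylation by c-Kit (commercial or His-tagged E. coli-expressed) over 1 h at room temperature, read by AlphaScreen PY30/streptavidin beads. Low-ATP version: 10 μM ATP, 100 nM biotin-(E4Y)3; high-ATP version: 100 μM ATP, 30 nM biotin-(E4Y)10.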
For orientation: Bead proximity is the source of the signal in Alpha formats.
For orientation: IC50 means the concentration that inhibits the measured activity by half. Low readings indicate greater potency, high ones weaker potency. The molecule `COc1cc(-c2cc3c(N4CCC(c5nc(C)c(-c6cccc(OC(F)(F)F)c6)[nH]5)CC4)ncnc3[nH]2)ccn1` [P-3014, 6-(2-methoxy-4-pyridyl)-4-[4-[4-methyl-5-[3-(trifluoromethoxy)phenyl]-1H-imidazol-2-yl]-1-piperidyl]-7H-pyrrolo[2,3-d]pyrimidine] gave an IC50 of 1 to 10 µM.

For the molecule `COc1ccc(-c2[nH]c(C3CCN(c4ncnc5[nH]c(-c6ccc(C#N)cc6)cc45)CC3)nc2C)cc1` [P-3015, 4-[4-[4-[5-(4-methoxyphenyl)-4-methyl-1H-imidazol-2-yl]-1-piperidyl]-7H-pyrrolo[2,3-d]pyrimidin-6-yl]benzonitrile], the IC50 lay within 0.0001 to 1 µM.

For `Cc1nc(C2CCN(c3ncnc4[nH]c(-c5ccc(C#N)cc5)cc34)CC2)[nH]c1-c1cccc(F)c1` [P-3016, 4-[4-[4-[5-(3-fluorophenyl)-4-methyl-1H-imidazol-2-yl]-1-piperidyl]-7H-pyrrolo[2,3-d]pyrimidin-6-yl]benzonitrile], the IC50 lay in the range of 1 to 10 µM.

In the case of `COc1ccc(-c2[nH]c(C3CCN(c4ncnc5[nH]c(-c6ccnc(OC)c6)cc45)CC3)nc2C)cc1` [P-3017, 4-[4-[5-(4-methoxyphenyl)-4-methyl-1H-imidazol-2-yl]-1-piperidyl]-6-(2-methoxy-4-pyridyl)-7H-pyrrolo[2,3-d]pyrimidine], the IC50 lay within 0.0001 to 1 µM.

Take `COc1ccc(-c2[nH]c(C3CCN(c4ncnc5[nH]c(-c6ccc(C#N)cc6)cc45)CC3)nc2C)cc1F` [P-3018, 4-[4-[4-[5-(3-fluoro-4-methoxy-phenyl)-4-methyl-1H-imidazol-2-yl]-1-piperidyl]-7H-pyrrolo[2,3-d]pyrimidin-6-yl]benzonitrile]: the IC50 was 1 to 10 µM.

Molecule `CCOc1ccc(-c2[nH]c(C3(C)CCN(c4ncnc5[nH]c(-c6ccc(OC)nc6)cc45)CC3)nc2C)cc1` [P-3171, 4-[4-[5-(4-ethoxyphenyl)-4-methyl-1H-imidazol-2-yl]-4-methyl-1-piperidyl]-6-(6-methoxy-3-pyridyl)-7H-pyrrolo[2,3-d]pyrimidine] gave a half-maximal inhibitory concentration (IC50) of 0.0001 to 1 µM.

As to `COc1ccc(-c2[nH]c(C3(C)CCN(c4ncnc5[nH]c(-c6ccc(C#N)cc6)cc45)CC3)nc2C)cn1` [P-3172, 4-[4-[4-[5-(6-methoxy-3-pyridyl)-4-methyl-1H-imidazol-2-yl]-4-methyl-1-piperidyl]-7H-pyrrolo[2,3-d]pyrimidin-6-yl]benzonitrile], the half-inhibitory concentration (IC50) was 0.0001 to 1 µM.

`COc1ncc(-c2[nH]c(C3CCN(c4ncnc5[nH]c(-c6ccc(C#N)cc6)cc45)CC3)nc2C)cc1F` [P-3173, 4-[4-[4-[5-(5-fluoro-6-methoxy-3-pyridyl)-4-methyl-1H-imidazol-2-yl]-1-piperidyl]-7H-pyrrolo[2,3-d]pyrimidin-6-yl]benzonitrile] registered a concentration for half-maximal inhibition (IC50) of 0.0001 to 1 µM.

The molecule `Cc1nc(C2(C)CCN(c3ncnc4[nH]c(-c5cnn(C(F)F)c5)cc34)CC2)[nH]c1-c1ccc(Cl)cc1` [P-3175, 4-[4-[5-(4-chlorophenyl)-4-methyl-1H-imidazol-2-yl]-4-methyl-1-piperidyl]-6-[1-(difluoromethyl)pyrazol-4-yl]-7H-pyrrolo[2,3-d]pyrimidine] yielded a half-inhibitory concentration (IC50) of 0.0001 to 1 µM.

In turn, `COc1ccc(-c2cc3c(N4CCC(C)(c5nc(C)c(-c6ccc(Cl)cc6)[nH]5)CC4)ncnc3[nH]2)cn1` [P-3176, 4-[4-[5-(4-chlorophenyl)-4-methyl-1H-imidazol-2-yl]-4-methyl-1-piperidyl]-6-(6-methoxy-3-pyridyl)-7H-pyrrolo[2,3-d]pyrimidine] yielded an IC50 of 0.0001 to 1 µM.

In turn, `Cc1nc(C2(C)CCN(c3ncnc4[nH]c(-c5ccc(C#N)cc5)cc34)CC2)[nH]c1-c1ccc(C(F)(F)F)cc1` [P-3177, 4-[4-[4-methyl-4-[4-methyl-5-[4-(trifluoromethyl)phenyl]-1H-imidazol-2-yl]-1-piperidyl]-7H-pyrrolo[2,3-d]pyrimidin-6-yl]benzonitrile] registered an IC50 of 0.0001 to 1 µM.

The values above are taken from patent US9771369B2, “Compounds and methods for kinase modulation, and indications therefor” (Plexxikon Inc., priority 2014, dated 2017).
